Results taken from ChEMBL document CHEMBL5352476, “A comprehensive overview of Artemisinin and its derivatives as anticancer agents” (Eur J Med Chem, 2023).

Experiments:
[1] = Cytotoxicity against human CCD 19Lu cells assessed as inhibition of cell growth; assay type: toxicity, cell-based
RL95-2 = assay: Antiproliferative activity against human RL95-2 cells assessed as inhibition of cell growth by MTT assay; assay type: functional, cell-based; settings: pooled result: one value given for 6 cell lines, strains, targets or settings
Mus musculus = assay: Antitumor activity against human RL95-2 cells xenografted in BALB/c nude mouse assessed as tumor growth inhibition rate at 5.0 mg/kg, ip administered three times a week for 4 weeks relative to control; assay type: functional; settings: RL95-2, 672 h
HepG2 = assay: Antiproliferative activity against human HepG2 cells assessed as inhibition of cell growth by MTT assay; assay type: functional, cell-based
MDA-MB-231 [2] = assay: Antiproliferative activity against human MDA-MB-231 cells assessed as inhibition of cell growth; assay type: functional, cell-based
HeLa = assay: Antiproliferative activity against human HeLa cells assessed as inhibition of cell growth; assay type: functional, cell-based
SK-BR-3 = assay: Antiproliferative activity against human SK-BR-3 cells assessed as inhibition of cell growth; assay type: functional, cell-based
HCT-116 = assay: Antiproliferative activity against human HCT-116 cells assessed as inhibition of cell growth; assay type: functional, cell-based
HT-29 = assay: Antiproliferative activity against human HT-29 cells assessed as inhibition of cell growth incubated for 72 hrs by MTT assay; assay type: functional, cell-based; settings: HT-29, 72 h
NCI-H460 = assay: Antiproliferative activity against human NCI-H460 cells assessed as inhibition of cell growth incubated for 72 hrs by MTT assay; assay type: functional, cell-based; settings: NCI-H460, 72 h
MDA-MB-231 [3] = assay: Antiproliferative activity against human MDA-MB-231 cells assessed as inhibition of cell growth incubated for 72 hrs by MTT assay; assay type: functional, cell-based; settings: MDA-MB-231, 72 h
U-87 MG [4] = assay: Antiproliferative activity against human U-87 MG cells assessed as inhibition of cell growth incubated for 72 hrs by MTT assay; assay type: functional, cell-based, U-87MG ATCC
A549 = assay: Antiproliferative activity against human A549 cells assessed as inhibition of cell growth incubated for 72 hrs by MTT assay; assay type: functional, cell-based; settings: A549, 72 h
HL-60 = assay: Antiproliferative activity against human HL-60 cells assessed as inhibition of cell growth incubated for 72 hrs by MTT assay; assay type: functional, cell-based; settings: HL-60, 72 h
[5] = Cytotoxicity against human WI-38 cells assessed as inhibition of cell growth incubated for 72 hrs by MTT assay; assay type: toxicity, cell-based
RPMI-7951 = assay: Antiproliferative activity against human RPMI-7951 cells assessed as inhibition of cell growth incubated for 24 hrs by MTT assay; assay type: functional, cell-based; settings: RPMI-7951, 24 h
U-87 MG [6] = assay: Antiproliferative activity against human U87 cells assessed as inhibition of cell growth incubated for 24 hrs by MTT assay; assay type: functional, cell-based, U-87MG ATCC
U-87 MG [7] = assay: Antiproliferative activity against human U87 cells assessed as inhibition of cell growth incubated for 72 hrs by MTT assay; assay type: functional, cell-based, U-87MG ATCC

CCCCCCCCCCCCCCNC(=O)C[C@H]1O[C@@H]2O[C@@]3(C)CC[C@H]4[C@H](C)CC[C@@H]([C@H]1C)[C@@]24OO3
IC50 [1]: 460 nM

C[C@H]1[C@@H](OCCNCCO[C@H]2O[C@@H]3O[C@@]4(C)CC[C@H]5[C@H](C)CC[C@@H]([C@H]2C)[C@@]35OO4)O[C@@H]2O[C@@]3(C)CC[C@H]4[C@H](C)CC[C@@H]1[C@@]24OO3
IC50 (RL95-2): 1160 nM
inhibition in vivo at 5 mg/kg (Mus musculus): 49.9%

CCCCCCCCCCCCNC(=O)C[C@H]1O[C@@H]2O[C@@]3(C)CC[C@H]4[C@H](C)CC[C@@H]([C@H]1C)[C@@]24OO3
IC50 (HepG2): 1200 nM

C[C@H]1[C@@H](CCCOC(=O)NCCC[P+](c2ccccc2)(c2ccccc2)c2ccccc2)O[C@@H]2O[C@@]3(C)CC[C@H]4[C@H](C)CC[C@@H]1[C@@]24OO3
IC50 (MDA-MB-231 [2]): 820 nM
IC50 (HeLa): 820 nM
IC50 (SK-BR-3): 820 nM
IC50 (HCT-116): 820 nM

C[C@@H]1CC[C@H]2[C@@H](C)C(OCCNC(=O)c3ccc(COc4ccc(/C=C/S(=O)(=O)Nc5ccc(OC(F)(F)F)cc5)cc4)cc3)O[C@@H]3O[C@@]4(C)CC[C@@H]1[C@]32OO4 (stereo partly drawn)
IC50 (HT-29): 90 nM
IC50 (NCI-H460): 90 nM
IC50 (MDA-MB-231 [3]): 90 nM
IC50 (U-87 MG [4]): 90 nM
IC50 (A549): 90 nM
IC50 (HL-60): 90 nM
IC50 at 72 h [5]: 90 nM

COC(=O)C(Cc1ccc(OC(=O)CCC(=O)O[C@@H]2O[C@@H]3O[C@@]4(C)CC[C@H]5[C@H](C)CC[C@@H]([C@H]2C)[C@@]35OO4)cc1)NC(=O)CCC(=O)O[C@@H]1O[C@@H]2O[C@@]3(C)CC[C@H]4[C@H](C)CC[C@@H]([C@H]1C)[C@@]24OO3 (stereo partly drawn)
IC50 (RPMI-7951): 1760 nM

CCCCCCCCCCCC[C@@H](O)C[C@H]1O[C@@H]2O[C@@]3(C)CC[C@H]4[C@H](C)CC[C@@H]([C@H]1C)[C@@]24OO3
IC50 (HepG2): 4400 nM

C[C@@H]1CC[C@H]2[C@@H](C)C(OCCOc3ccc(/C=C/S(=O)(=O)Nc4ccc(OC(F)(F)F)cc4)cc3)O[C@@H]3O[C@@]4(C)CC[C@@H]1[C@]32OO4 (stereo partly drawn)
IC50 (HT-29): 50 nM
IC50 (NCI-H460): 50 nM
IC50 (MDA-MB-231 [3]): 50 nM
IC50 (U-87 MG [4]): 50 nM
IC50 (A549): 50 nM
IC50 (HL-60): 50 nM
IC50 at 72 h [5]: 50 nM

C[C@H]1[C@H](OC(=O)CCC(=O)OCc2ccc(OC(=O)CCC(=O)O[C@@H]3O[C@@H]4O[C@@]5(C)CC[C@H]6[C@H](C)CC[C@@H]([C@H]3C)[C@@]46OO5)cc2)O[C@@H]2O[C@@]3(C)CC[C@H]4[C@H](C)CC[C@@H]1[C@@]24OO3
IC50 (RPMI-7951): 50 nM

CCCCCCCCCCCC[C@H](O)C[C@H]1O[C@@H]2O[C@@]3(C)CC[C@H]4[C@H](C)CC[C@@H]([C@H]1C)[C@@]24OO3
IC50 (HepG2): 2800 nM

C[C@H]1[C@@H](OCCCN=C=S)O[C@@H]2O[C@@]3(C)CC[C@H]4[C@H](C)CC[C@@H]1[C@@]24OO3
IC50 (U-87 MG [6]): 7410 nM
IC50 (U-87 MG [7]): 7350 nM
